Data taken from US7951796B2 (priority 2005, dated 2011).

How the values were obtained:
[1] = system: cellular cholesterol in ScN2a cells; format: cell-based, mouse
[2] = system: RML scrapie prion infection; format: in vivo, mouse (transgene TG 20); conditions: TG 20 mice

Row | SMILES | cholesterol distribution (filipin staining) [1] | time to death of prion disease ([2]; intracerebral RML scrapie, 2 mg per mouse by gavage three times weekly for eight weeks, untreated control 92±4 days) [days] | lengthening of the survival time ([2]; versus untreated control, Student's t test p<0.0001) [%]
1 | CCN(CC)CCCC(C)Nc1c2ccc(Cl)cc2nc2ccc(OC)cc12 (stereo not shown) [Quinacrin, reference compound] | redistribution was revealed to intracellular compartments | – | –
2 | COc1ccc2nc3cc(Cl)ccc3c(NCCCCN3CCN(CCCN4c5ccccc5CCc5ccccc54)CC3)c2c1 [compound (10), (6-chlor-2-methoxy-acridine-9-yl)-(4-{4-[3-(10,11-dihydro-dibenzo[b,f]azepine-5-yl)-propyl]-piperazine-1-yl}-butyl)-amine] | redistribution was revealed to intracellular compartments | 100 ± 5 | 10
